PMC5702336, “Critical Role of Hepatic Cyp450s in the Testis-Specific Toxicity of (5R)-5-Hydroxytriptolide in C57BL/6 Mice” (Frontiers in Pharmacology, 2017)

Key:
Assay type in all cases: in vivo, mouse
RNA polymerase II = RNA polymerase II protein level in testes and liver (western blot); conditions: 0.5–1 mg/kg, 15 days
Experimental: (§1) For toxicity experiments, mice (n = 3/group) were treated with LLDT-8 (0.5 or 1.0 mg/kg) consecutively administered by gavage for 15 days. Controls received saline. Mice were killed on the 15th-day post-administration and blood, liver, kidney, spleen, testes, and epididymis were collected. About 500 μL blood samples were collected from the heart. The main lobe of the liver, kidney, spleen, and epididymis was fixed in 10% neutral buffered formalin for histological examination, and the left testicle was fixed in modified Davidson's buffer (30% of a 37–40% solution of formaldehyde, 15% ethanol, 5% glacial acetic acid, and 50% distilled H2O) for 16 h followed by 10% neutral buffered formalin for 24 h (Latendresse et al., [2002]). Tissue sections were stained with hematoxylin and eosin (H&E). Remaining tissues were stored at −80°C for RNA and protein extraction.
Cells were washed twice with ice-cold PBS (137 mM NaCl, 2.7 mM KCl, 10 mM Na2HPO4, and 1.8 mM KH2PO4, pH 7.4) and lysed in SDS sample buffer. Cell lysates, containing 20 μg of protein, were separated with SDS-PAGE (8%) and transferred to polyvinylidene difluoride membranes. After blocking in 5% non-fat milk in tris-buffered saline containing 0.1% Tween-20 (pH = 7.6), membranes were incubated with the appropriate primary antibodies at 4°C overnight. The primary antibodies γ-H2AX (Cat. No: 2577, Lot. No: 11, CST, USA) and Pol II (Cat. No: 05-623, Lot. No: 2397109, Millipore, USA) diluted 1:1000 in 5% bovine serum albumin (BSA, Cat. No. B2064-50G, Sigma, USA). Then the membranes were exposed to secondary antibodies (1:10,000, Cat. No.111-035-003, 115-035-003, Jackson ImmunoResearch Laboratories, USA) in 5% non-fat milk for 1 h at room temperature. Immunoreactive proteins were visualized using an enhanced chemiluminescent system (Cat. No. WBKLS0500, Millipore, Shanghai, China).

testes gene expression = assay: qPCR of AR-related, Sertoli cell and germ cell marker genes in testes
Experimental: as §1
Total mouse testes RNA was isolated using a UNIQ-10 total RNA isolation kit (Sangon Biotech, Shanghai, China). One micro gram RNA per sample was reverse-transcribed into cDNA using a PrimeScript RT reagent kit (Cat. No. RR036A, Takara, Dalian, China). The purity and quality of RNA and cDNA were checked by A260/A280 ratio and agarose gel. The qPCR was executed in 20 μL volume containing 10 μL SYBR Premix Ex Taq (Cat. No. RR820A, Takara, Dalian, China), 8 μL of cDNA (80 ng cDNA), 1 μL forward primer (500 nM) and 1 μL reverse primer (500 nM). The sequences of primers for Androgen-binding protein (ABP) and cystatin 12 (Cst12) were referenced from PrimerBank. The sequences for other genes were described elsewhere [Deleted in azoospermia-like (Dazl), Heat shock protein a2 (Hspa2), Phosphoglycerate kinase-2 (Pgk2), Protamine 1 (Prm1), GATA binding protein 1 (Gata1) and Zbtb16 zinc finger and BTB domain containing 16 (Plzf) (Qi et al., [2016]); AR (Ma et al., [2013]); Reproductive homeobox 5 (Rhox5) (Kurek et al., [2015]); Fatty acid binding protein (FABP) (Vanschoonbeek et al., [2008]); Claudin 11 (Cldn11) (Sumigray et al., [2014]); β-actin (Wan et al., [2017])]. The qPCR process was performed using a Rotor Gene Q PCR system (QIAGEN, Shanghai, China). The qPCR amplification program consisted of polymerase activation at 98°C for the 30 s and 40 cycles of denaturation at 95°C for 5 s, annealing, and extension at 60°C for 40 s. The melting curve analysis was carried out for each reaction from 50 to 99°C. The CT values for the samples were normalized to the corresponding β-actin CT values.

mice testes = assay: Testicular toxicity comparison between triptolide and LLDT-8 (15 days by gavage, H&E); conditions: 0.5 mg/kg by gavage for 15 days
Experimental: For toxicity experiments, mice (n = 3 for each group) were treated with tritpilide (0.125, 0.25, 0.5mg/kg), LLDT-8 (0.125, 0.25, 0.5mg/kg) consecutively administered by gavage for 15 days. The control group received saline. Mice were sacrificed on the 15th day post-administration and blood, liver, kidney, spleen, testis and epididymis were collected. The main lobe of liver, kidney, spleen and epididymis were fixed in 10% neutral buffered formalin for histological examination, the left testicle was fixed in Davidson’s buffer for 16 hours followed by 10% neutral buffered formalin. Tissue sections were stained with hematoxylin and eosin (H&E). Remaining tissues were stored at -80 °C for RNA and protein extraction.
Supplementary Figure S1 Comparison of testicular toxicity between triptolide(TL) and LLDT-8. Mice (n=3) were weighted before sacrificed on the 15th day post-administration of triptolide, LLDT-8 or saline. The testes were collected and weighted. […] (G-H) Comparison of epididymis weight between triptolide and LLDT-8. Significant difference was determined by one-way Anova, mean ± SD. * p<0.05, *** p<0.001 vs Saline group. # p<0.05, ## p<0.01, ### p<0.001 vs T8 group at the same dosage.

CC(C)[C@]12O[C@H]1[C@@H]1O[C@]13[C@]1(O[C@H]1C[C@@]1(O)C4=C(CC[C@]31C)C(=O)OC4)[C@@H]2O [LLDT-8, (5R)-5-hydroxytriptolide]
Pol II protein in the testes of KO mice (RNA polymerase II): decreased
Pol II protein level in the livers of KO mice (RNA polymerase II): did not change
expression of Pol II in the testes and liver of WT mice (RNA polymerase II): did not change significantly
expression of AR, Rhox5, Cldn11, Cst12, ABP and FABP in testes of WT mice (testes gene expression; 0.5–1.0 mg/kg, 15 days): did not reduce
expression of Dazl and Prm1 in testes of WT mice (testes gene expression; 15 days): marked decrease
expression of Hspa2 in testes of WT mice (testes gene expression; 15 days): mild decrease
expression of Cldn11, Cst12 and FABP in testes of WT mice (testes gene expression; particularly in 1.0 mg/kg group): increased
testis morphology (H&E) (mice testes): did not obviously alter the normal morphology of testes
